# Measured values reported in patent US9969699B2, “Cancer cell growth inhibitor, anticancer agent, and method for screening same, as well as novel compound” (Microbial Chemistry Research Foundation, priority 2014, dated 2018).
# pIC50: −log10 of the molar value.
# Key:
# [1] = Acute toxicity test, tail vein administration; type: in vivo, ICR mice; conditions: tail vein once; for Organ weight Heart / Organ weight Kidney (Right) / Organ weight Liver / Organ weight Lung / Organ weight Spleen / Organ weight Thymus / Organ weight Kidney (Left): two weeks after
# Method: Two-weeks after the compounds represented by the Structural Formula (1) at the above concentrations were administered to the tail veins, the mice were dissected and organs thereof were weighed.
# U87MG cells = experiment: 3D cell culture step, EGFR vIII gene non-expressing brain tumor cells U87MG; type: cell-based; conditions: Test Example 3, U87MG cells
# Method: (§1) The following 3 brain tumor cells were used as the EGFR vIII gene non-expressing cells. • U251 cells (available from ATCC) • U87MG cells (available from ATCC) • KS-1 cells (available from ATCC) <3D Cell Culture Step>
# (§2) After the 3 days of culture, the number of viable cells was counted by […]-GLO (trademark) Luminescent Cell Viability Assay (available from Promega), which was a method for quantitating ATP in viable cells. A cell proliferation inhibition rate in the 3D cell culture step was calculated according to (Expression 3) below. Cell proliferation inhibition rate(%)=(1−X/Y)×100 (Expression 3)
# (§3) In the (Expression 3), X denotes the number of viable cells when the test substance was added, and Y denotes the number of viable cells when the test substance was not added.
# U251 cells = experiment: 3D cell culture step, EGFR vIII gene non-expressing brain tumor cells U251; type: cell-based; conditions: Test Example 3, U251 cells
# Method: as §1, §2, §3
# NIH3T3/EGFRWT cells = experiment: 3D cell culture step, NIH3T3/EGFRWT cells in EGF-including medium; type: cell-based, mouse
# Method: as §2, §3
# [2] = Solubility (remark in acute toxicity test); type: physicochemical
# NIH3T3 cells = experiment: 2D cell culture step (environment with adhesion scaffold), proliferation of NIH3T3 cells; type: cell-based; conditions: Mus musculus, 72 h; NIH3T3 cells, TC-treated plate, 3 days, […]-GLO; read-out: IC50 2D cell culture step
# Method: Note that, as a negative control, the NIH3T3 cells at 2×10^3 cells/100 were seeded to the same plate in a volume of 100 μL per well and cultured at 37° C. in the presence of 5% CO2 for 3 days without the addition of the test substance.
# Note that, Dulbecco's Modified Eagle Medium supplemented with 5% FBS was used for the culture.
# A cell proliferation inhibition rate in the 2D cell culture step was calculated according to (Expression 2) below. Cell proliferation inhibition rate(%)=(1−D/E)×100 (Expression 2)
# In the (Expression 2), D denotes the number of viable NIH3T3 cells when the test substance was added, and E denotes the number of viable NIH3T3 cells when the test substance was not added.
# KS-1 cells = experiment: 3D cell culture step, EGFR vIII gene non-expressing brain tumor cells KS-1; type: cell-based; conditions: Test Example 3, KS-1 cells
# Method: as §1, §2, §3
# [3] = Acute toxicity test, intraperitoneal administration; type: in vivo, ICR mice; conditions: intraperitoneally once; for Organ weight Heart / Organ weight Kidney (Left) / Organ weight Kidney (Right) / Organ weight Liver / Organ weight Lung / Organ weight Spleen / Organ weight Thymus: two weeks after
# From the text: Two-weeks after the compounds represented by the Structural Formula (1) at the above concentrations were intraperitoneally administered, the mice were dissected and organs thereof were weighed.
# Two-weeks after the compounds represented by the Structural Formula (8) at the above concentrations were intraperitoneally administered, the mice were dissected and organs thereof were weighed.
# [4] = test system: NIH3T3/EGFRWT cell-transplanted tumor
# From the text: Note that, “*” denotes t<0.05.
# mDia = conditions: in vitro, reported in NPL 1; cited from earlier work
smiles,measurement,setting,value
"Nc1ccc(Br)cc1-c1nc2ccccc2[nH]c1=O [Structural Formula (1), 3-(2-amino-5-bromophenyl)-2(1H)-quinoxalinone]",Organ weight Heart,[1]; 0.39 mg/kg/0.2 mL,121.0 mg
same,Organ weight Kidney (Right),[1]; 0.39 mg/kg/0.2 mL,168.0 mg
same,Organ weight Liver,[1]; 0.39 mg/kg/0.2 mL,1325.0 mg
same,Organ weight Lung,[1]; 0.39 mg/kg/0.2 mL,173.0 mg
same,Organ weight Spleen,[1]; 0.39 mg/kg/0.2 mL,110.0 mg
same,Organ weight Thymus,[1]; 0.39 mg/kg/0.2 mL,83.0 mg
same,Organ weight Heart,[1]; 0.78 mg/kg/0.2 mL,116.0 mg
same,Organ weight Kidney (Left),[1]; 0.78 mg/kg/0.2 mL,165.0 mg
same,Organ weight Kidney (Right),[1]; 0.78 mg/kg/0.2 mL,174.0 mg
same,Organ weight Liver,[1]; 0.78 mg/kg/0.2 mL,1423.0 mg
same,Organ weight Lung,[1]; 0.78 mg/kg/0.2 mL,164.0 mg
same,Organ weight Spleen,[1]; 0.78 mg/kg/0.2 mL,115.0 mg
same,Organ weight Thymus,[1]; 0.78 mg/kg/0.2 mL,112.0 mg
same,Organ weight Heart,[1]; 1.56 mg/kg/0.2 mL,121.0 mg
same,Organ weight Kidney (Left),[1]; 1.56 mg/kg/0.2 mL,170.0 mg
same,Organ weight Kidney (Right),[1]; 1.56 mg/kg/0.2 mL,167.0 mg
same,Organ weight Liver,[1]; 1.56 mg/kg/0.2 mL,1471.0 mg
same,Organ weight Lung,[1]; 1.56 mg/kg/0.2 mL,170.0 mg
same,Organ weight Spleen,[1]; 1.56 mg/kg/0.2 mL,104.0 mg
same,Organ weight Thymus,[1]; 1.56 mg/kg/0.2 mL,56.0 mg
same,toxicity,[1]; observed 2 weeks,no significant toxicity
same,inhibiting activity against scaffold-independent proliferation capacity,U87MG cells,did not exhibit an inhibiting activity
same,inhibiting activity against scaffold-independent proliferation capacity,U251 cells,did not exhibit an inhibiting activity
same,inhibition of proliferation of the NIH3T3/EGFRWT cells,"NIH3T3/EGFRWT cells; 3D cell culture step, EGF 50 ng/mL in medium",inhibited proliferation
same,inhibiting activity against scaffold-independent proliferation capacity,"NIH3T3/EGFRWT cells; Test Example 3, NIH3T3/EGFRWT cells, EGF-including medium",exhibited an inhibiting activity
same,solubility,[2],poor solubility
same,pIC50,NIH3T3 cells,< 5.00
same,inhibiting activity against scaffold-independent proliferation capacity,KS-1 cells,did not exhibit an inhibiting activity
same,Organ weight Heart,[3]; 0.098 mg/kg/0.2 mL,115.0 mg
same,Organ weight Kidney (Left),[3]; 0.098 mg/kg/0.2 mL,139.0 mg
same,Organ weight Kidney (Right),[3]; 0.098 mg/kg/0.2 mL,147.0 mg
same,Organ weight Liver,[3]; 0.098 mg/kg/0.2 mL,1047.0 mg
same,Organ weight Lung,[3]; 0.098 mg/kg/0.2 mL,160.0 mg
same,Organ weight Spleen,[3]; 0.098 mg/kg/0.2 mL,78.0 mg
same,Organ weight Thymus,[3]; 0.098 mg/kg/0.2 mL,67.0 mg
same,Organ weight Heart,[3]; 0.195 mg/kg/0.2 mL,125.0 mg
same,Organ weight Kidney (Left),[3]; 0.195 mg/kg/0.2 mL,175.0 mg
same,Organ weight Kidney (Right),[3]; 0.195 mg/kg/0.2 mL,184.0 mg
same,Organ weight Liver,[3]; 0.195 mg/kg/0.2 mL,1590.0 mg
same,Organ weight Lung,[3]; 0.195 mg/kg/0.2 mL,169.0 mg
same,Organ weight Spleen,[3]; 0.195 mg/kg/0.2 mL,121.0 mg
same,Organ weight Thymus,[3]; 0.195 mg/kg/0.2 mL,83.0 mg
same,Organ weight Heart,[3]; 0.39 mg/kg/0.2 mL,106.0 mg
same,Organ weight Kidney (Left),[3]; 0.39 mg/kg/0.2 mL,157.0 mg
same,Organ weight Kidney (Right),[3]; 0.39 mg/kg/0.2 mL,168.0 mg
same,Organ weight Liver,[3]; 0.39 mg/kg/0.2 mL,1350.0 mg
same,Organ weight Lung,[3]; 0.39 mg/kg/0.2 mL,160.0 mg
same,Organ weight Spleen,[3]; 0.39 mg/kg/0.2 mL,95.0 mg
same,Organ weight Thymus,[3]; 0.39 mg/kg/0.2 mL,74.0 mg
same,Organ weight Heart,[3]; 0.78 mg/kg/0.2 mL,115.0 mg
same,Organ weight Kidney (Left),[3]; 0.78 mg/kg/0.2 mL,163.0 mg
same,Organ weight Kidney (Right),[3]; 0.78 mg/kg/0.2 mL,159.0 mg
same,Organ weight Liver,[3]; 0.78 mg/kg/0.2 mL,1263.0 mg
same,Organ weight Lung,[3]; 0.78 mg/kg/0.2 mL,167.0 mg
same,Organ weight Spleen,[3]; 0.78 mg/kg/0.2 mL,116.0 mg
same,Organ weight Thymus,[3]; 0.78 mg/kg/0.2 mL,78.0 mg
same,Organ weight Heart,[3]; 1.56 mg/kg/0.2 mL,134.0 mg
same,Organ weight Kidney (Left),[3]; 1.56 mg/kg/0.2 mL,162.0 mg
same,Organ weight Kidney (Right),[3]; 1.56 mg/kg/0.2 mL,169.0 mg
same,Organ weight Liver,[3]; 1.56 mg/kg/0.2 mL,1472.0 mg
same,Organ weight Lung,[3]; 1.56 mg/kg/0.2 mL,178.0 mg
same,Organ weight Spleen,[3]; 1.56 mg/kg/0.2 mL,103.0 mg
same,Organ weight Thymus,[3]; 1.56 mg/kg/0.2 mL,85.0 mg
same,Organ weight Heart,[3]; 3.125 mg/kg/0.2 mL,135.0 mg
same,Organ weight Kidney (Left),[3]; 3.125 mg/kg/0.2 mL,193.0 mg
same,Organ weight Kidney (Right),[3]; 3.125 mg/kg/0.2 mL,191.0 mg
same,Organ weight Liver,[3]; 3.125 mg/kg/0.2 mL,1558.0 mg
same,Organ weight Lung,[3]; 3.125 mg/kg/0.2 mL,179.0 mg
same,Organ weight Spleen,[3]; 3.125 mg/kg/0.2 mL,150.0 mg
same,Organ weight Thymus,[3]; 3.125 mg/kg/0.2 mL,99.0 mg
same,Organ weight Heart,[3]; 6.25 mg/kg/0.2 mL,114.0 mg
same,Organ weight Kidney (Left),[3]; 6.25 mg/kg/0.2 mL,167.0 mg
same,Organ weight Kidney (Right),[3]; 6.25 mg/kg/0.2 mL,163.0 mg
same,Organ weight Liver,[3]; 6.25 mg/kg/0.2 mL,1412.0 mg
same,Organ weight Lung,[3]; 6.25 mg/kg/0.2 mL,178.0 mg
same,Organ weight Spleen,[3]; 6.25 mg/kg/0.2 mL,104.0 mg
same,Organ weight Thymus,[3]; 6.25 mg/kg/0.2 mL,68.0 mg
same,Organ weight Heart,[3]; 12.5 mg/kg/0.2 mL,107.0 mg
same,Organ weight Kidney (Left),[3]; 12.5 mg/kg/0.2 mL,161.0 mg
same,Organ weight Kidney (Right),[3]; 12.5 mg/kg/0.2 mL,163.0 mg
same,Organ weight Liver,[3]; 12.5 mg/kg/0.2 mL,1120.0 mg
same,Organ weight Lung,[3]; 12.5 mg/kg/0.2 mL,159.0 mg
same,Organ weight Spleen,[3]; 12.5 mg/kg/0.2 mL,98.0 mg
same,Organ weight Thymus,[3]; 12.5 mg/kg/0.2 mL,63.0 mg
same,Organ weight Heart,[3]; 25 mg/kg/0.2 mL,111.0 mg
same,Organ weight Kidney (Left),[3]; 25 mg/kg/0.2 mL,157.0 mg
same,Organ weight Kidney (Right),[3]; 25 mg/kg/0.2 mL,170.0 mg
same,Organ weight Liver,[3]; 25 mg/kg/0.2 mL,1316.0 mg
same,Organ weight Lung,[3]; 25 mg/kg/0.2 mL,147.0 mg
same,Organ weight Spleen,[3]; 25 mg/kg/0.2 mL,98.0 mg
same,Organ weight Thymus,[3]; 25 mg/kg/0.2 mL,92.0 mg
same,Organ weight Heart,[3]; 50 mg/kg/0.4 mL,120.0 mg
same,Organ weight Kidney (Left),[3]; 50 mg/kg/0.4 mL,166.0 mg
same,Organ weight Kidney (Right),[3]; 50 mg/kg/0.4 mL,173.0 mg
same,Organ weight Liver,[3]; 50 mg/kg/0.4 mL,1747.0 mg
same,Organ weight Lung,[3]; 50 mg/kg/0.4 mL,168.0 mg
same,Organ weight Spleen,[3]; 50 mg/kg/0.4 mL,132.0 mg
same,Organ weight Thymus,[3]; 50 mg/kg/0.4 mL,69.0 mg
same,toxicity,"[3]; 0.098 to 50 mg/kg, observed 2 weeks",no significant toxicity
same,tumor proliferation inhibiting activity,"[4]; 30 mg/kg intraperitoneally once a day, day 1 to day 17",exhibited the tumor proliferation inhibiting activity
same,tumor proliferation inhibiting activity compared with Gefitinib,[4]; 30 mg/kg intraperitoneally vs Gefitinib 200 mg/kg orally,comparable
same,inhibition of mDia-mediated actin assembly,mDia,inhibit mDia-mediated actin assembly in vitro
